The structures appear in SMILES notation.

The experiment has as its target T1, human recombinant progesterone receptor-B (PRB) (Homo sapiens, UniProt P06401).
T1 construct: purchased Invitrogen (Carlsbad, Calif.)
T1 sequence (P06401 1-933): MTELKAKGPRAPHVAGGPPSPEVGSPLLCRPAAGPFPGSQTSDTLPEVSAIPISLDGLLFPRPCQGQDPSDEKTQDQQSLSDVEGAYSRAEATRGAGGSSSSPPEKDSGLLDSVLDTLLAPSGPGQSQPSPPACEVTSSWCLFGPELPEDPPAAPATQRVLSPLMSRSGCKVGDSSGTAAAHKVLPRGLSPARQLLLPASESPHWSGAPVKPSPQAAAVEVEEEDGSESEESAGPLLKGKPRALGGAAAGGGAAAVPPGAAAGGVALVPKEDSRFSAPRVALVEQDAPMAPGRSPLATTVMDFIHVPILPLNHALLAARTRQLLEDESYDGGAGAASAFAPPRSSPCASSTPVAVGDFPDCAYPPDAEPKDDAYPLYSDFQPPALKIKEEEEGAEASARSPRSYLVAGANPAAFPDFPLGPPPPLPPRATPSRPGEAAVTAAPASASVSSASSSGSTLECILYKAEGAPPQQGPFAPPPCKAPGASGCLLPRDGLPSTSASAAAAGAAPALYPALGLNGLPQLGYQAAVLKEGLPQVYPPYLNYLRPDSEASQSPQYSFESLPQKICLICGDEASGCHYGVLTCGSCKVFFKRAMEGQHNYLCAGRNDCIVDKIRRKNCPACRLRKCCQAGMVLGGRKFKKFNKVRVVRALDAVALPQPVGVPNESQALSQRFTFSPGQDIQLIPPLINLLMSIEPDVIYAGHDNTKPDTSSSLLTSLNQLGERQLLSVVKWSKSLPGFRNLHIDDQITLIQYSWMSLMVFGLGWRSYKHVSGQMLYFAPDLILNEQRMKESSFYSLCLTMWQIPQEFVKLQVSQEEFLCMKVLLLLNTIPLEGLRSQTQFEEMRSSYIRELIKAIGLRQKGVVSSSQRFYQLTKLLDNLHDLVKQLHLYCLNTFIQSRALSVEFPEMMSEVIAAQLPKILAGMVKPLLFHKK
The experiment is described as follows: Radioactive ligand binding test, PRB cytosol, [3H]-Prog. The following applies: [3H]-Prog about 5 nM, PRB cytosol, 4° C.; Cheng-Prusoff, Kd about 3.5 nM; read-out: PR (Ki: nM). From the text: Radioactive Ligand Binding Test Using Cytosols of Human Glucocorticoids Receptor, Progesterone Receptor and Mineralocorticoid Receptor
The procedures described in Neuroimmunomodulation (1994, 1, p. 66-73) and Invest. Opthalmol. Vis. Sci. (1996, 37, p. 805-813) were modified and used. In brief, cytosol preparations of human recombinant glucocorticoids receptor (GR) and human recombinant progesterone receptor-B (PRB) were purchased from Invitrogen (Carlsbad, Calif.), and a cytosol preparation of human recombinant mineralocorticoid receptor (MR) was prepared by our company (Yokohama, JP). MR cDNA was cloned into a baculovirus expression vector and expressed in insect cell Sf9. The procedures described in J. Biol. Chem. (1991, 266, p. 18072-18081), Proc. Natl. Acad. Sci. USA (1991, 88, p. 10681-10685) and Bac-to-Bac (registered trade mark) Baculovirus Expression Systems technical manual (Invitrogen) were partly modified and used as the procedures for MR gene cloning up to preparation of recombinant receptor cytosol. [^3H]-Dexamethasone (Dex, specific activity 91.0 Ci/mmol) was purchased from GE Healthcare (Buckinghamshire, UK), and [^3H]-progesterone (Prog, specific activity 103 Ci/mmol) and [3H]-aldosterone (Ald, specific activity 87.9 Ci/mmol) were each purchased from PerkinElmer (Boston, Mass.). Polypropylene round-bottomed 96 well plate was obtained from ABgene (Epsom, UK). Dimethyl Sulfoxide (DMSO) and hydrochloric acid were obtained from Kanto Chemical (TOKYO, JP). Trizma Base (Tris), Bovine Serum Albumin (BSA) and Sodium tungstate dihydrate were obtained from Sigma Chemicals (St. Louis, Mo.). Dithiothreitol (DTT) and Dextran 70 were obtained from GE Healthcare (Buckinghamshire, UK). Glycerol was obtained from Junsei Chemical (TOKYO, JP). Norit® “SX-II” was obtained from Wako Pure Chemical Industries, Ltd. (Osaka, JP). MeltiLex™, A, Printed Filtermat A and Sample Bag were obtained from PerkinElmer (Boston, Mass.).
As a buffer for GR binding assay, 25 mM Tris-HCl (4° C., pH 7.4)/1 mM EDTA·2Na/1 mM DTT/0.1% BSA was prepared and used. As buffers for PRB and MR binding assay, 10 mM Tris-HCl (4° C., pH 7.4)/1 mM DTT/0.1% BSA/10% glycerol and 20 mM Tris-HCl (4° C., pH 7.4)/1 mM EDTA·2Na/10% glycerol/20 mM sodium tungstate were respectively prepared and used. As dextran-coated charcoal (DCC) for B/F separation, 0.75% Dextran 70/0.75% Norit® SX-II/10 mM Tris-HCl (4° C., pH 7.4) was prepared and used.
Compound storage solutions (5-20 mM) were prepared using DMSO. The storage solutions were diluted with DMSO to 0.1 mM (for GR) and 0.3 mM (for PRB and MR), and further diluted 20-fold with distilled water to give solutions. Then, the preparations were diluted to each concentration with 5% DMSO solution. 1% DMSO was present at the time of the binding assay.
In the case of PRB binding assay, [^3H]-Prog (about 5 nM), PRB cytosol (concentration of function receptor: about 4 pmol/mL), a test compound and a binding buffer were mixed in a total volume of 50 μL, and the mixture was stood at 4° C. for 30 min or longer. A specific binding was defined to be the difference in the [^3H]-Prog binding between the presence and the absence of 1 μM unlabeled Prog.
After the reaction, 50 μL of DCC was added to each well and blended. Thereafter, the mixture was stood at 4° C. for 10 min. The plate was applied to high-speed cooling centrifuge under the conditions of 4° C., 2000 rpm, 5 min to perform B/F separation. A given amount of the supernatant was recovered, which was spotted on Filtermat A of 96 well format (PerkinElmer) and rapidly dried at a high temperature. Then, solid scintillator MeltiLex A (PerkinElmer) was melted on Filtermat A. The mixture was placed in a Sample Bag (PerkinElmer), and the level of radioactivity was measured by plate reader 1450 Micro Beta TRILUX (PerkinElmer).
Measurement of Inhibition Constant (Ki)
For the molecule `C=CCC1(C)C(=O)C(C)(C)Nc2c1cc(-c1cccc3nccn13)c1c2CCC1` (stereo not shown) [Example 57, 4-allyl-6-(imidazo[1,2-a]pyridin-5-yl)-2,2,4-trimethyl-2,3,4,7,8,9-hexahydro-1H-cyclopenta[h]quinolin-3-one], the inhibitory constant (Ki) (in general, a measure of affinity in units of concentration, obtained from inhibition or displacement) is above 1250 nM.

For the molecule `C=CCC1(C)C(=O)C(C)(C)Nc2c1cc(-c1ccc(O)cc1C)c1c2CCC1` (stereo not shown) [Example 50, 4-allyl-6-(4-hydroxy-2-methylphenyl)-2,2,4-trimethyl-2,3,4,7,8,9-hexahydro-1H-cyclopenta[h]quinolin-3-one], the Ki was above 1250 nM.

Regarding `CC1(C)Nc2c(cc(-c3cccc4ncccc34)c3occc23)C(C)(C)C1=O` [Example 101, 2,2,4,4-tetramethyl-6-(quinolin-5-yl)-1,2,3,4-tetrahydro-furo [2,3-h]quinolin-3-one], the Ki stood at 1220 nM.

For `CC1(C)Nc2c(cc(-c3ccnc4cc[nH]c34)c3c2CCC3)C(C)(C)C1=O` [Example 13, 2,2,4,4-tetramethyl-6-(1H-pyrrolo[3,2-b]pyridin-7-yl)-2,3,4,7,8,9-hexahydro-1H-cyclopenta[h]quinolin-3-one], the Ki is above 1250 nM.

As to `CC1(C)Nc2c(cc(-c3cccc4nccn34)c3c2OCO3)C(C)(C)C1=O` [Example 71, 4-(imidazo[1,2-a]pyridin-5-yl)-6,6,8,8-tetramethyl-6,7,8,9-tetrahydro-[1,3]dioxolo[4,5-h]quinolin-7-one], the inhibitory constant (Ki) was above 1250 nM.

For `CC1(C)Nc2c(cc(-c3ccnc4ncccc34)c3occc23)C(C)(C)C1=O` [Example 102, 2,2,4,4-tetramethyl-6-([1,8]naphthyridin-4-yl)-1,2,3,4-tetrahydro-furo[2,3-h]quinolin-3-one], the Ki is above 1250 nM.

For the molecule `CC1(C)Nc2c(cc(-c3cccc4ncccc34)c3c2OCO3)C(C)(C)C1=O` [Example 72, 6,6,8,8-tetramethyl-4-(quinolin-5-yl)-6,7,8,9-tetrahydro-[1,3]dioxolo[4,5-h]quinolin-7-one], the inhibition constant (Ki) is above 1250 nM.

Source of the values: patent US8367695B2, “Condensed tetrahydroquinoline derivative and use thereof for medical purposes” (Mitsubishi Tanabe Pharma Corporation, priority 2007, dated 2013).
